One data set deals with mGlu2 receptor (Rattus norvegicus (Rat), UniProt P31421). Nature of the data set: mGlu2 in vitro GIRK thallium flux assay. It counts as cell-based. The note with it: read-out: mGlu2 EC50 (μM) (60 min); NAM; test compound incubated 60 min before EC80 glutamate; HEK-293 GIRK cells. On the procedure: All cell culture reagents were purchased from Invitrogen Corp. (Carlsbad, Calif.) unless otherwise noted. Compound activity at the group II (mGlu2 and mGlu3) mGlus was assessed using thallium flux through GIRK channels. Briefly, cells were plated into 384-well, black-walled, clear-bottomed poly-D-lysine-coated plates at a density of 15,000 cells/20 μL/well in DMEM containing 10% dialyzed FBS, 20 mM HEPES, and 100 units/mL penicillin/streptomycin (assay media). Plated cells were incubated overnight at 37° C. in the presence of 5% CO2. […] Cells were incubated for 1 h at room temperature, and the dye exchanged to assay buffer using an ELX405, leaving 20 μL/well. Test compounds were diluted to 2 times their final desired concentration in assay buffer (0.3% DMSO final concentration). […] Cell plates and compound plates were loaded onto a kinetic imaging plate reader (FDSS 6000 or 7000; Hamamatsu Corporation, Bridgewater, N.J.). Appropriate baseline readings were taken (10 images at 1 Hz; excitation, 470±20 nm; emission, 540±30 nm) and test compounds were added in a 20 μL volume and incubated for either 2.5 min or 60 min as indicated before the addition of 10 μL of thallium buffer with or without agonist. After the addition of agonist, data were collected for approximately an additional 2.5 min. Data were analyzed using Excel (Microsoft Corp, Redmond, Wash.). The slope of the fluorescence increase beginning 5 s after thallium/agonist addition and ending 15 s after thallium/agonist addition was calculated, corrected to vehicle and maximal agonist control slope values, and plotted in using either XLfit (ID Business Solutions Ltd) or Prism software (GraphPad Software, San Diego, Calif.) to generate concentration-response curves. Potencies were calculated from fits using a four-point parameter logistic equation. For concentration-response curve experiments, compounds were serially diluted 1:3 into 10 point concentration response curves and were transferred to daughter plates using an Echo acoustic plate reformatter (Labcyte, Sunnyvale, Calif.). Test compounds were applied and followed by EC80 concentrations of glutamate.

Data set [1] is described as follows: Plasma stability in vitro assay. It counts as in vitro ADME. The note with it: heparinized rat plasma, 100 μM, 37.5° C. The protocol:
A 20 μL aliquot of a 10 mM solution in DMSO of the test compound was added to 2.0 mL of heparinized rat plasma (Lampire, P1-150N) to obtain a 100 μM final solution. The mixture was incubated for 1 h at 37.5° C. Aliquots of 100 μL were taken at 15 min intervals and diluted with 100 μL of MeOH/ACN. After mixing, the sample was centrifuged at approximately 13000 rpm for 12 min. The supernatant was filtered and transferred into an autosampler vial and the amount of test compound was quantified using the Shimadzu LCMS-2010EV system. The change of the AUC of the parent compound in function of time was used as a measure of plasma stability.

Data set [2] in a line: Microsomal stability in vitro assay. In kind it is in vitro ADME. The note with it: pooled rat liver microsomes, 4 μM compound, NADPH. On the procedure: Pooled rat liver microsomes (BD Biosciences, #452701) were preincubated with test compounds at 37.5° C. for 5 min in the absence of NADPH. The reaction was initiated by addition of NADPH and incubated under the same conditions. The final incubation concentrations were 4 μM test compound, 2 mM NADPH, and 1 mg/mL (total protein) liver microsomes in phosphate-buffered saline (PBS) at pH 7.4. One aliquot (100 μL) of the incubation mixture was withdrawn at 15 min time points and combined immediately with 100 μL of ACN/MeOH. After mixing, the sample was centrifuged at approximately 13000 rpm for 12 min. The supernatant was filtered and transferred into an autosampler vial and the amount of test compound was quantified using a Shimadzu LCMS 2010EV mass spectrometer. The change of the AUC (area under the curve) of the parent compound as a function of time was used as a measure of microsomal stability. Test compounds were run in duplicate with a positive control.
Background: Liver microsomes are vesicles of endoplasmic reticulum, rich in cytochrome P450 enzymes.

Consider 17 compounds from patent publication US10597367B2, “Metabotropic glutamate receptor negative allosteric modulators (NAMs) and uses thereof” (Sanford Burnham Prebys Medical Discovery Institute, priority 2014, dated 2020).

What is called EC50 is the concentration that produces a half-maximal response.

Some results are limits rather than exact numbers.

Chain of mGlu2 receptor (P31421 19-872): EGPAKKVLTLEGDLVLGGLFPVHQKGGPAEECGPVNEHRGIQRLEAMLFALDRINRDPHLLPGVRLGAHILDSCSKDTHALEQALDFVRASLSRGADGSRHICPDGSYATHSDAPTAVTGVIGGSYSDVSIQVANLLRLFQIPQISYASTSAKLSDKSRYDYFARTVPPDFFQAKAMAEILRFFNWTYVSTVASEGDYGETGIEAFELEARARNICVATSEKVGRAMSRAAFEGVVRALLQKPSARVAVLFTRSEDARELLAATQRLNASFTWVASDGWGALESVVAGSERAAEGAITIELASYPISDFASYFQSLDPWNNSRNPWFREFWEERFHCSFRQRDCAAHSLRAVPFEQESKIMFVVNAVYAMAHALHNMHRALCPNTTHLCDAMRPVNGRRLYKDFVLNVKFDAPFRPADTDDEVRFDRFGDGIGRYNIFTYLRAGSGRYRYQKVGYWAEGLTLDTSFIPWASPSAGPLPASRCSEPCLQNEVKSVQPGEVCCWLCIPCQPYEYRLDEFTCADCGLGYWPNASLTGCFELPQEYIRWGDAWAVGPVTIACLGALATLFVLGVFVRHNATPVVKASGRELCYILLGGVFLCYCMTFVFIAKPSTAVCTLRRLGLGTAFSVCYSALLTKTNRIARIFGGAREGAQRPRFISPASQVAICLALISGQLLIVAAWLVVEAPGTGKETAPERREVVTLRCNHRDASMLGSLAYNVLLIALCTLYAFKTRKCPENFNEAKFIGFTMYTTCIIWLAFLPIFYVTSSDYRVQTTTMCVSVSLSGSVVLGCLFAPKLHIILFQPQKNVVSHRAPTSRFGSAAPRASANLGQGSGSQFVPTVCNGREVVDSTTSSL

As for `Cc1cc2c(cc1C(F)(F)F)NC(=O)CC(c1cccc(Oc3cccc(C(F)(F)F)c3)c1)N2` (single isomer, unassigned) [Example 172B, 7-Methyl-8-(trifluoromethyl)-4-(3-(3-(trifluoromethyl)phenoxy)phenyl)-4,5-dihydro-1H-benzo[b][1,4]diazepin-2(3H)-one], the EC50 on mGlu2 receptor is greater than 10 µM. For the compound `Cc1cc2c(cc1C(F)(F)F)NC(=O)CC(c1cccc(Oc3cccc(Br)c3)c1)N2` (single isomer, unassigned) [Example 173B, 4-(3-(3-Bromophenoxy)phenyl)-7-methyl-8-(trifluoromethyl)-4,5-dihydro-1H-benzo[b][1,4]diazepin-2(3H)-one], the EC50 at mGlu2 receptor is greater than 10 µM. For the compound `O=C(O)c1cc(-c2cccc(-c3csc(-c4ccccc4)n3)c2)ccc1F` [Example 1, 4-Fluoro-3′-(2-phenylthiazol-4-yl)biphenyl-3-carboxylic Acid], the “Plasma Stability, Percent Remaining @ 1 hour” value in data set [1] was 93%. In addition, the “Microsomal Stability, Percent Remaining @ 1 hour” value in data set [2] was 3%. As for `O=C(O)c1cc(F)cc(-c2cccc(-c3csc(-c4ccccc4)n3)c2)c1` [Example 9, 5-Fluoro-3′-(2-phenylthiazol-4-yl)biphenyl-3-carboxylic Acid], the “Plasma Stability, Percent Remaining @ 1 hour” value in data set [1] is reported as 98%. The “Microsomal Stability, Percent Remaining @ 1 hour” value in data set [2] was 4%. Regarding `O=C(O)c1cc(-c2cccc(-c3nsc(-c4ccccc4)n3)c2)ccc1F` [Example 38, 4-Fluoro-3′-(5-phenyl-1,2,4-thiadiazol-3-yl)biphenyl-3-carboxylic Acid], the “Plasma Stability, Percent Remaining @ 1 hour” value in data set [1] is listed as 65%. Also, the “Microsomal Stability, Percent Remaining @ 1 hour” value in data set [2] is 2%. On to `O=C(O)c1cc(F)cc(-c2cccc(-c3nsc(-c4ccoc4)n3)c2)c1` [Example 43, 5-Fluoro-3′-(5-(furan-3-yl)-1,2,4-thiadiazol-3-yl)biphenyl-3-carboxylic Acid], for which the “Plasma Stability, Percent Remaining @ 1 hour” value in data set [1] is reported as 95%. The “Microsomal Stability, Percent Remaining @ 1 hour” value in data set [2] was 66%. Take `O=C(O)c1cc(F)cc(-c2cccc(-c3nc(-c4ccc(C(F)(F)F)nc4)cc(C(F)(F)F)n3)c2)c1` [Example 76, 5-Fluoro-3′-(4-(trifluoromethyl)-6-(6-(trifluoromethyl)pyridin-3-yl)pyrimidin-2-yl)biphenyl-3-carboxylic Acid]: the “Plasma Stability, Percent Remaining @ 1 hour” value in data set [1] came to 100%. Also, the “Microsomal Stability, Percent Remaining @ 1 hour” value in data set [2] amounted to 95%. As to `O=C(O)c1ccc(F)c(-c2cccc(-c3nc(-c4ccc(C(F)(F)F)nc4)cc(C(F)(F)F)n3)c2)c1` [Example 79, 6-Fluoro-3′-(4-(trifluoromethyl)-6-(6-(trifluoromethyl)pyridin-3-yl)pyrimidin-2-yl)biphenyl-3-carboxylic Acid], the “Plasma Stability, Percent Remaining @ 1 hour” value in data set [1] is on record as 86%. For the same compound, in data set [2], the “Microsomal Stability, Percent Remaining @ 1 hour” value is given as 82%.

Regarding `O=C(O)c1cc(-c2cccc(-c3nc(-c4ccccc4)cc(C(F)(F)F)n3)c2)ccc1F` [Example 86, 4-Fluoro-3′-(4-phenyl-6-(trifluoromethyl)pyrimidin-2-yl)biphenyl-3-carboxylic Acid], the “Plasma Stability, Percent Remaining @ 1 hour” value in data set [1] is 100%. In data set [2], the “Microsomal Stability, Percent Remaining @ 1 hour” value is listed as 100%.

As to `COc1ccc(-c2cc(C(F)(F)F)nc(-c3cccc(-c4ccc(F)c(C(=O)O)c4)c3)n2)cc1` [Example 87, 4-Fluoro-3′-(4-(4-methoxyphenyl)-6-(trifluoromethyl)pyrimidin-2-yl)biphenyl-3-carboxylic Acid], the “Plasma Stability, Percent Remaining @ 1 hour” value in data set [1] was found to be 97%. Besides, the “Microsomal Stability, Percent Remaining @ 1 hour” value in data set [2] amounted to 92%. For `O=C(O)c1cc(F)cc(-c2cccc(-c3nc(-c4ccco4)cc(C(F)(F)F)n3)c2)c1` [Example 89, 5-Fluoro-3′-(4-(furan-2-yl)-6-(trifluoromethyl)pyrimidin-2-yl)biphenyl-3-carboxylic Acid], in data set [1], the “Plasma Stability, Percent Remaining @ 1 hour” value is 100%. The “Microsomal Stability, Percent Remaining @ 1 hour” value in data set [2] was determined as 82%. Consider `O=C(O)c1ccc(F)c(-c2cccc(-c3nc(-c4ccoc4)cc(C(F)(F)F)n3)c2)c1` [Example 114, 6-Fluoro-3′-(4-(furan-3-yl)-6-(trifluoromethyl)pyrimidin-2-yl)biphenyl-3-carboxylic Acid], for which, in data set [1], the “Plasma Stability, Percent Remaining @ 1 hour” value turned out to be 93%. Also, in data set [2], the “Microsomal Stability, Percent Remaining @ 1 hour” value is given as 66%. Take `O=C(O)c1cc(-c2cccc(-c3nc(-c4ccsc4)cc(C(F)(F)F)n3)c2)ccc1F` [Example 122, 4-Fluoro-3′-(4-(thiophen-3-yl)-6-(trifluoromethyl)pyrimidin-2-yl)-[1,1′-biphenyl]-3-carboxylic Acid]: the “Plasma Stability, Percent Remaining @ 1 hour” value in data set [1] is 83%. The “Microsomal Stability, Percent Remaining @ 1 hour” value in data set [2] is 83%.

For the compound `Cc1cc2c(cc1C(F)(F)F)NC(=O)CC(c1cccc(Sc3ncccn3)c1)=N2` [Example 136, 7-Methyl-4-(3-(pyrimidin-2-ylthio)phenyl)-8-(trifluoromethyl)-1H-benzo[b][1,4]diazepin-2(3H)-one], in data set [1], the “Plasma Stability, Percent Remaining @ 1 hour” value amounted to 99%. For the same compound, in data set [2], the “Microsomal Stability, Percent Remaining @ 1 hour” value is given as 90%. Regarding `Cc1cc2c(cc1C(F)(F)F)NC(=O)CC(c1cccc(S(=O)(=O)c3ncccn3)c1)=N2` [Example 137, 7-Methyl-4-(3-(pyrimidin-2-ylsulfonyl)phenyl)-8-(trifluoromethyl)-1H-benzo[b][1,4]diazepin-2(3H)-one], in data set [1], the “Plasma Stability, Percent Remaining @ 1 hour” value is 66%. Further, in data set [2], the “Microsomal Stability, Percent Remaining @ 1 hour” value is listed as 68%.

With `O=C1CC(c2cccc(-c3cccnc3)c2)=Nc2ccc(Br)cc2N1` [Example 179, 8-Bromo-4-(3-(pyridin-3-yl)phenyl)-1,3-dihydro-2H-benzo[b][1,4]diazepin-2-one], the “Plasma Stability, Percent Remaining @ 1 hour” value in data set [1] was determined as 100%. In addition, the “Microsomal Stability, Percent Remaining @ 1 hour” value in data set [2] came out at 30%. Turning to `N#Cc1cc(C2=Nc3ccc(C(F)(F)F)cc3NC(=O)C2)ccn1` [Example 184, 4-(2-Oxo-8-(trifluoromethyl)-2,3-dihydro-1H-benzo[b][1,4]diazepin-4-yl)picolinonitrile], the “Plasma Stability, Percent Remaining @ 1 hour” value in data set [1] was 100%. In data set [2], the “Microsomal Stability, Percent Remaining @ 1 hour” value stood at 97%.
